# Results as given in patent publication US20250134875A1, “FORMULATIONS OF ALK-5 KINASE INHIBITORS AND USES THEREOF” (Thirona Bio, Inc., priority 2023, published 2025).
# Test system: profibrotic genes
# Test: Gene expression (RNA sequencing) in surgical incision-induced dermal fibrosis model
# Type: in vivo, Göttingen minipig
# Procedure: Minipig skin is more similar to human skin than rodent skin, and dermal delivery of topical ALK-5 kinase inhibitor Compound 1 in minipigs is expected to be reflective of treatment of human skin. Therefore, a model of surgical incision-induced dermal fibrosis was established in minipigs and the effects of topical Compound 1 were evaluated by visual assessment, histologic examination and gene expression by RNA sequencing.
# The study was conducted in 4 female Göttingen SPF minipigs. On Day 1, eight full thickness incisional wounds, four on each side, were performed on each animal. Compound 1 0% (Vehicle), 0.1%, 0.3% or 1% was applied topically twice daily for 14 days from Day 7 through Day 20 on each incision. All animals received a dose volume of 160 μl per wound ([…] applied to a 32 cm2 area surrounding each incision). Clinical signs, visual observations of incisions, body weight and food consumption were recorded during the in-life period. At necropsy (Day 21) two biopsies were collected from each incision for histopathology and gene expression analysis.
# For gene expression analysis, a 0.3 cm punch biopsy was collected from the incisional wounds. Samples were collected and stored overnight in prefilled tubes containing RNAlater at 5±3° C., and then transferred to a freezer and stored at ˜−20° C. The biopsies collected were then thawed and subjected to RNA purification and then generation of mRNA-enriched cDNA libraries for Illumina sequencing. RNA sequencing was performed to a depth of ˜15 million reads followed by bioinformatic analysis, including differential gene expression analysis.
# [1] = topical 0.1%, 0.3% or 1% twice daily Day 7-20, biopsy Day 21
structure (smiles),measurement,setting,value
Cc1cccc(-n2ncc(C)c2-c2cc3cnccc3s2)n1 [Compound 1],Gene expression of the profibrotic genes investigated,FIG. 7,consistent tendency to dose-dependently reduce gene expression
same,"Change in gene expression, ADAM12",[1],−52%
same,"Change in gene expression, ADAMTS14",[1],−52%
same,"Change in gene expression, BMP1",[1],−47%
same,"Change in gene expression, COL1A1",[1],−49%
same,"Change in gene expression, COL1A2",[1],−48%
same,"Change in gene expression, COL3A1",[1],−49%
same,"Change in gene expression, MMP2",[1],−52%
same,"Change in gene expression, MMP9",[1],−54%
same,"Change in gene expression, MMP14",[1],−42%
same,"Change in gene expression, TGF-β1",[1],up to −23%
same,"Change in gene expression, TGF-β2",[1],≤ −32%
same,"Change in gene expression, TGF-β3",[1],≤ −49%
same,"Change in gene expression, THBS4",[1],−67%
same,"Change in gene expression, TIMP1",[1],−17%
same,"Change in gene expression, TIMP2",[1],−46%
